The text below walks through data of patent publication US12263154B2, “Composition using 4′,6,7-trimethoxyisoflavone and catechol for managing pulmonary fibrosis” (A-CHEMBIO CO., LTD, priority 2020, dated 2025).

For data set [1], the system named is alveolar epithelial A549 cells. As to the kind of experiment: Cell migration inhibition (scratch), EMT induced by TGF-β1. The data set is classed as cell-based. As to conditions: TGF-β1-treated A549; BCT 10 μM, BCC 0.5 μM; 72 hours; FIG. 2. As to the method:
As EMT progresses, the proliferation and movement of epithelial cells increases, cell penetration increases, and cell morphology changes, thereby confirming EMT inhibitory efficacy and evaluating the degree of expression of mechanism-related factors. A549 cells were seeded at 1×10^5 cells in 1 mL per well in a 6-well plate and cultured at 37° C. under 5% CO 2 for 24 hours. After 24 hours, a single cell layer was scratched with a 1 mL tip and a medium containing TGF-β1, TGF-β1, and sample BCT (10 μM) or TGF-β1, and sample BCC (0.5 μM) was added to each well. After culturing for 72 hours, the degree of cell migration was confirmed under a microscope, and images were taken.

Data set [2] deals with cells in BALF. As to the kind of experiment: Change in cell number in bronchoalveolar lavage fluid (BALF), pulmonary fibrosis animal model. The data set is classed as in vivo, mice. As to conditions: increased in BLM-administered group; FIG. 10. As to the method: (§1) The airways of the mice were incised, and bleomycin (3 mg/kg, BLM) was injected into the airways. After injection, the incision site was sutured with nylon thread, samples of BCT and/or BCC were administered daily 24 hours after bleomycin was injected. Mice were raised to 28 days from the start date of the experiment and sacrificed on day 29 to separate the broncho-alveolar lavage fluid (BALF) and lung tissue and used in further experiments.
Pulmonary fibrosis is characterized by an increase in the total number of cells and the percentage of neutrophils in the BALF fluid.
After collecting BALF from each experimental animal group, neutrophils and alveolar macrophages, including total cells, were measured. The method of measuring the total number of cells in BALF, the ratio of neutrophils and alveolar macrophages, etc., is as follows. BALF was mixed with trypan blue in a ratio of 1:1, and then the total number of cells was counted as ×104/BALF 1 mL using a hemocytometer (Fisher Scientific, PA, USA). The prepared BALF was spread on a slide glass and then stained with Diff Quik (manufactured by Sysmex Corporation, USA), the number of neutrophils and alveolar macrophages among a total of 200 cells was counted under a microscope, and the ratio was measured and recorded.

In data set [3] the test system is alveolar epithelial A549 cells. The data set is described as follows: Cell morphological changes, EMT induced by TGF-β1. The data set is classed as cell-based. As to conditions: changed by TGF-β1 treatment, BCT 10 μM, BCC 0.5 μM, 48 hours, FIG. 6. The method, then:
A549 cells were seeded on a 60 mm plate at 1×10^5 /mL and cultured for 24 hours. Then, 5 mL of a medium containing TGF-β1, TGF-β1 and sample BCT (10 μM) and/or TGF-β1 and sample BCC (0.5 μM) was added to each well and incubated for another 48 hours. After culturing, the cells were checked under a microscope, and images were taken.

Data set [4] deals with lung fibrosis. The data set is described as follows: Histopathological examination in bleomycin pulmonary fibrosis animal model. The data set is classed as in vivo, mice. To be noted: BLM 3 mg/kg into airways, samples administered daily; for size of the fibrosis area according to the tissue scoring system (Ashcroft score): Masson's trichrome, graph at bottom of FIG. 8; for size of the increased fibrosis area (H&E staining): lung on day 29, FIG. 8. As to the method: The airways of the mice were incised, and bleomycin (3 mg/kg, BLM) was injected into the airways. After injection, the incision site was sutured with nylon thread, samples of BCT and/or BCC were administered daily 24 hours after bleomycin was injected. Mice were raised to 28 days from the start date of the experiment and sacrificed on day 29 to separate the broncho-alveolar lavage fluid (BALF) and lung tissue and used in further experiments. In order to evaluate lung fibrosis, animal models of each control group and experimental group were sacrificed, and the lungs were extracted from these animal models, fixed in 10% neutral buffered formalin (NBF), and then embedded with paraffin to produce tissue sections with a thickness of 2-4 um. After the sections were prepared, Hematoxylin-Eosin staining and Masson's trichrome staining were performed for comparison of histological findings and observed with an optical microscope. H&E staining was performed to evaluate inflammation and epithelial cell hypertrophy due to lung fibrosis, and Masson's trichrome staining was used to evaluate fibrosis using the following tissue scoring method (Scoring system, Ashcroft score). [table]

In data set [5] the test system is major markers of pulmonary fibrosis in lung tissue. As to the kind of experiment: Western blot of protein expression level using lung tissue, pulmonary fibrosis animal model. The data set is classed as in vivo, mice. To be noted: compared to BLM-induced group; FIG. 9. The method, then:
as §1
Animal models of each control group and the experimental group raised for 28 days were sacrificed, and lung tissue samples and serum samples were obtained from these animal models, respectively, and stored in a deep freezer at −70° C. Western blotting was performed for α-Sma, TGF-β1, Fibronectin, and E-cadherin proteins known as major markers of pulmonary fibrosis.
Lung tissue was put into T-PER buffer (lysis buffer, Thermo. Scientific, Wilmington, DE, USA) as a standard of 500 μL per 50 mg of tissue, and the tissue was homogenized using a homogenizer. The homogenized tissue was centrifuged at 13,000 rpm, and the supernatant was used as a sample for Western blot. The concentration of the tissue homogenate was quantified using a BCA Protein assay kit (Thermo. Scientific, Wilmington, DE, USA) solution. After mixing the protein and 6× sample buffer (1 mL of glycerol, 0.5 mL of β-Mercaptoethanol, 3 mL of 10% SDS, 1.25 mL of 1 M Tris-HCl, 1-2 μg of bromophenol blue), electrophoresis was performed on SDS polyacrylamide gel. After transferring to Nitrocellulose Membrane (Millipore, Billerica, MA, USA) and blocking with 5% non-fat skim milk, protein expression levels of related factors were measured using various antibodies, and whether the protein amount was the same was confirmed using actin. Each of the primary antibodies was diluted and reacted at room temperature for 4 hours, washed 3 times with TBST, the secondary antibody was diluted at 1:5,000 and reacted at room temperature for 30 minutes. After washing with TBST, a band was obtained after light emission with ECL solution (LPS solution, Korea, Seoul).
(Immunoblotting shows a protein as a band on a membrane.)

The subject of data set [6] is EMT mechanism-related factors in A549 cells. As to the kind of experiment: Western blot of EMT mechanism-related factors. The data set is classed as cell-based. As to conditions: BCT 10 μM, BCC 0.5 μM; for expression of E-cadherin: decreased by TGF-β1 treatment; for expression of E-cadherin / expression of Cyr61 / expression of Fibronectin / expression of Integrin β3 / expression of SMA2/3 / expression of Vimentin / expression of α-Sma: FIG. 4; for expression of Cyr61 / expression of Fibronectin / expression of Integrin β3 / expression of SMA2/3 / expression of Vimentin / expression of α-Sma / expression of pAKT / expression of pERK: increased by TGF-β1 treatment; for expression of pAKT / expression of pERK: FIG. 5. The method, then:
2×10^6 A549 cells were attached to a 100 mm culture vessel for 24 hours, treated with TGF-β1, TGF-β1 and sample BCT (10 μM) and/or TGF-β1 and sample BCC (0.5 μM)) and cultured. After collecting all of the cultured cells, the cell precipitate was dissolved in a cell lysate RIPA lysis buffer (LPS solution, Korea, Seoul), followed by centrifugation at 13,000 rpm for 20 minutes to obtain a supernatant. The total amount of protein was quantified using the BCA Protein assay kit (Thermo. Scientific, Wilmington, DE, USA) solution. After mixing the protein and 6× sample buffer (1 mL of glycerol, 0.5 mL of β- Mercaptoethanol, 3 mL of 10% SDS, 1.25 mL of 1 M Tris-HCl, 1-2 μg of bromophenol blue), electrophoresis was performed on SDS polyacrylamide gel. After transferring to Nitrocellulose Membrane (Millipore, Billerica, MA, USA) and blocking with 5% non-fat skim milk, protein expression levels of related factors were measured using various antibodies, and whether the protein amount was the same was confirmed using actin. Each of the primary antibodies was diluted and reacted at room temperature for 4 hours, washed 3 times with TBST, the secondary antibody was diluted at 1:5,000 and reacted at room temperature for 30 minutes. After washing with TBST, a band was obtained after light emission with ECL solution (LPS solution, Korea, Seoul). The results are shown in FIG. 4 for the Smad-dependent factor and FIG. 5 for the Smad-independent factor.

Data set [7] deals with human lung fetal cells (MRC-5). The data set is described as follows: MTT cytotoxicity assessment. The data set is classed as cell-based. As to conditions: 24 hours and 48 hours, FIG. 1. As to the method: (§2) Using the MTT (3-(4,5-dimethylthiazol-2yl)-2,5-diphenyl-2H-tetrazolium bromide) assay was applied to investigate the effect of TMF (BCT) and catechol (BCC) on cell proliferation. 5×10^3 cells/well were placed in a 96-well plate and incubated for 24 hours at 37° C., 5% CO2 incubator. Then, each sample was treated in each well according to the concentration and then incubated for 24 hours. Then, after washing with PBS, 20 μL of MTT dissolved in PBS and 200 μL of FBS-free DMEM were treated in each well and then incubated for 4 hours under the same conditions after blocking the light. After 4 hours, the culture solution was removed, treated with 200 μL of DMSO (dimethyl sulfoxide), and left at 37° C. for 2 hours, and absorbance was measured at 570 nm using a microplate reader.
(§3) The cell viability after 24 hours and 48 hours is shown in FIG. 1 as a percentage compared to the control group, the untreated sample group.

Data set [8] deals with human fibroblasts (HDF, Human Dermal Fibroblast). The data set is described as follows: MTT cytotoxicity assessment. To be noted: 24 hours and 48 hours, FIG. 1. The data set is classed as cell-based. The method, then: as §2, §3
For data set [9], the system named is muscle cells (C2C12). The data set is described as follows: MTT cytotoxicity assessment. The data set is classed as cell-based. To be noted: 24 hours and 48 hours, FIG. 1. As to the method:
as §2, §3

For data set [10], the system named is alveolar epithelial A549 cells. The data set is described as follows: Cell penetration inhibition (Matrigel trans-well), EMT induced by TGF-β1. As to conditions: TGF-β1-treated A549; BCT 10 μM, BCC 0.5 μM; 24 hours; FIG. 3. The data set is classed as cell-based. As to the method: As EMT progresses, the proliferation and movement of epithelial cells increases, cell penetration increases, and cell morphology changes, thereby confirming EMT inhibitory efficacy and evaluating the degree of expression of mechanism-related factors.
Trans-well inserts (Corning, USA) were coated with Matrigel® (Corning) at 2 mg/L. Dilute A549 cells to about 5×10^5/mL in 200 μl of serum-free media, and TGF-β1, TGF-β1 and sample BCT (10 μM) or TGF-β1 and sample BCC (0.5 μM) was added and dispensed into trans-well inserts. The cells were cultured for 24 hours by dispensing a medium containing 10% serum in the receive chambers. After the culture was completed, the cells remaining in the insert were removed, and the cells penetrating the receiving chamber were stained with crystal violet and photographed under a microscope.

Regarding `COc1ccc(-c2coc3cc(OC)c(OC)cc3c2=O)cc1` [BCT, 4′,6,7-trimethoxyisoflavone], the cell migration result in data set [1] is reported as “decreased”. Moreover, in [2], the “number of lymphocytes in BALF” value was “significantly decreased”, the “number of neutrophils in BALF” value is on record as “significantly decreased” and the “total number of cells in BALF” value is “significantly decreased”. For the same compound, the cell morphology result in [3] is on record as “recovered similarly to the control”. Besides, in data set [4], the “size of the fibrosis area according to the tissue scoring system (Ashcroft score)” value is “reduced” and the “size of the increased fibrosis area (H&E staining)” value was “reduced”. Further, in data set [5], the “E-cadherin expression in lung tissue” value is reported as “increased”, the “expression level of TGF-β1 in lung tissue” value is recorded as “decreased”, the “expression level of fibronectin in lung tissue” value is “decreased” and the “expression level of α-SMA in lung tissue” value is “decreased”. Also, in data set [6], the “expression of E-cadherin” value is on record as “increased”, the “expression of Cyr61” value was “decreased”, the “expression of Fibronectin” value was “decreased” and the “expression of Integrin β3” value is “decreased”. In addition, in data set [6], the “expression of SMA2/3” value is reported as “decreased”, the “expression of Vimentin” value was “decreased”, the “expression of α-Sma” value is listed as “decreased” and the “expression of pAKT” value is “decreased”. Also, the “expression of pERK” value in data set [6] is “decreased”. Further, the “cytotoxicity (cell viability)” value in data set [7] is “did not show any particular cytotoxicity”. In addition, in data set [8], the “cytotoxicity (cell viability)” value is given as “did not show any particular cytotoxicity”. The “cytotoxicity (cell viability)” value in [9] is reported as “did not show any particular cytotoxicity”. For the same compound, in data set [10], the “number of cells penetrating into the receiving chamber” value is recorded as “decreased”.
For the compound `Oc1ccccc1O` [BCC, 1,2-dihydroxybenzene], the cell migration result in data set [1] is “decreased”. Besides, in [2], the “number of lymphocytes in BALF” value is reported as “significantly decreased”, the “number of neutrophils in BALF” value was “significantly decreased” and the “total number of cells in BALF” value is reported as “significantly decreased”. Also, the cell morphology result in [3] is “recovered similarly to the control”. Moreover, in [4], the “size of the fibrosis area according to the tissue scoring system (Ashcroft score)” value was “reduced” and the “size of the increased fibrosis area (H&E staining)” value was “reduced”. Besides, in [5], the “E-cadherin expression in lung tissue” value is “increased”, the “expression level of TGF-β1 in lung tissue” value is given as “decreased”, the “expression level of fibronectin in lung tissue” value is recorded as “decreased” and the “expression level of α-SMA in lung tissue” value is “decreased”. Besides, in data set [6], the “expression of E-cadherin” value is recorded as “increased”, the “expression of Cyr61” value is listed as “decreased”, the “expression of Fibronectin” value is listed as “decreased” and the “expression of Integrin β3” value is “decreased”. In addition, in data set [6], the “expression of SMA2/3” value is given as “decreased”, the “expression of Vimentin” value is on record as “decreased”, the “expression of α-Sma” value is listed as “decreased” and the “expression of pAKT” value was “decreased”. The “expression of pERK” value in data set [6] is “decreased”. Also, in data set [7], the “cytotoxicity (cell viability)” value is recorded as “did not show any particular cytotoxicity”. The “cytotoxicity (cell viability)” value in [8] was “did not show any particular cytotoxicity”. Moreover, the “cytotoxicity (cell viability)” value in data set [9] is recorded as “did not show any particular cytotoxicity”. For the same compound, the “number of cells penetrating into the receiving chamber” value in data set [10] was “decreased”.
